In ChEMBL document CHEMBL1139978, “Synthesis and radiopharmacological characterization of [11C]AL-438 as a nonsteroidal ligand for imaging brain glucocorticoid receptors” (Bioorg Med Chem Lett, 2007):

Columns and labels:
Cortex [1] = assay: Biodistribution in Wistar rat cortex at 20 MBq, iv after 5 mins; assay type: ADME, organism-based; conditions: in vivo
Kidney [2] = assay: Biodistribution in corticosterone pretreated Wistar rat kidney at 20 MBq, iv after 5 mins; assay type: ADME, organism-based; conditions: in vivo
Femur [3] = assay: Biodistribution in corticosterone pretreated Wistar rat femur at 20 MBq, iv after 60 mins; assay type: ADME, organism-based; conditions: in vivo, 1 h
Adrenal [4] = assay: Biodistribution in Wistar rat adrenal at 20 MBq, iv after 60 mins; assay type: ADME, organism-based, Adrenal tissue; conditions: in vivo, 1 h
Spleen [5] = assay: Biodistribution in Wistar rat spleen at 20 MBq, iv after 60 mins; assay type: ADME, organism-based; conditions: in vivo, 1 h
Hippocampus [6] = assay: Biodistribution in Wistar rat hippocampus at 20 MBq, iv after 60 mins; assay type: ADME, organism-based; conditions: in vivo, 1 h
Rattus norvegicus [7] = assay: Biodistribution in corticosterone pretreated Wistar rat rest of brain at 20 MBq, iv after 60 mins; assay type: ADME, organism-based; conditions: in vivo, 1 h
Hippocampus [8] = assay: Biodistribution in corticosterone pretreated Wistar rat hippocampus at 20 MBq, iv after 60 mins; assay type: ADME, organism-based; conditions: in vivo, 1 h
Heart [9] = assay: Biodistribution in corticosterone pretreated Wistar rat heart at 20 MBq, iv after 5 mins; assay type: ADME, organism-based; conditions: in vivo
Femur [10] = assay: Biodistribution in Wistar rat femur at 20 MBq, iv after 5 mins; assay type: ADME, organism-based; conditions: in vivo
Pancreas [11] = assay: Biodistribution in corticosterone pretreated Wistar rat pancreas at 20 MBq, iv after 5 mins; assay type: ADME, organism-based; conditions: in vivo
Rattus norvegicus [12] = assay: Biodistribution in corticosterone pretreated Wistar rat brown fat at 20 MBq, iv after 60 mins; assay type: ADME, organism-based, Brown adipose tissue; conditions: in vivo, 1 h
Cortex [13] = assay: Biodistribution in corticosterone pretreated Wistar rat cortex at 20 MBq, iv after 5 mins; assay type: ADME, organism-based; conditions: in vivo
Pancreas [14] = assay: Biodistribution in corticosterone pretreated Wistar rat pancreas at 20 MBq, iv after60 mins; assay type: ADME, organism-based; conditions: in vivo, 1 h
Pancreas [15] = assay: Biodistribution in Wistar rat pancreas at 20 MBq, iv after 60 mins; assay type: ADME, organism-based; conditions: in vivo, 1 h
Rattus norvegicus [16] = assay: Biodistribution in corticosterone pretreated Wistar rat fat at 20 MBq, iv after 5 mins; assay type: ADME, organism-based, Adipose tissue; conditions: in vivo
Harderian gland [17] = assay: Biodistribution in corticosterone pretreated Wistar rat harderian gland at 20 MBq, iv after 60 mins; assay type: ADME, organism-based; conditions: in vivo, 1 h
Kidney [18] = assay: Biodistribution in Wistar rat kidney at 20 MBq, iv after 5 mins; assay type: ADME, organism-based; conditions: in vivo
Rattus norvegicus [19] = assay: Biodistribution in corticosterone pretreated Wistar rat fat at 20 MBq, iv after 60 mins; assay type: ADME, organism-based, Adipose tissue; conditions: in vivo, 1 h
Femur [20] = assay: Biodistribution in corticosterone pretreated Wistar rat femur at 20 MBq, iv after 5 mins; assay type: ADME, organism-based; conditions: in vivo
Cortex [21] = assay: Biodistribution in corticosterone pretreated Wistar rat cortex at 20 MBq, iv after 60 mins; assay type: ADME, organism-based; conditions: in vivo, 1 h
Liver = assay: Biodistribution in Wistar rat liver at 20 MBq, iv after 60 mins; assay type: ADME, organism-based; conditions: in vivo, 1 h
Muscle tissue = assay: Biodistribution in Wistar rat muscle at 20 MBq, iv after 60 mins; assay type: ADME, organism-based; conditions: in vivo, 1 h
Cerebellum [22] = assay: Biodistribution in corticosterone pretreated Wistar rat cerebellum at 20 MBq, iv after 60 mins; assay type: ADME, organism-based; conditions: in vivo, 1 h
Pancreas [23] = assay: Biodistribution in Wistar rat pancreas at 20 MBq, iv after 5 mins; assay type: ADME, organism-based; conditions: in vivo
Rattus norvegicus [24] = assay: Biodistribution in Wistar rat fat at 20 MBq, iv after 60 mins; assay type: ADME, organism-based, Adipose tissue; conditions: in vivo, 1 h
Harderian gland [25] = assay: Biodistribution in corticosterone pretreated Wistar rat harderian gland at 20 MBq, iv after 5 mins; assay type: ADME, organism-based; conditions: in vivo
Adrenal [26] = assay: Biodistribution in Wistar rat adrenal at 20 MBq, iv after 5 mins; assay type: ADME, organism-based, Adrenal tissue; conditions: in vivo
Pituitary gland [27] = assay: Biodistribution in Wistar rat pituitary at 20 MBq, iv after 5 mins; assay type: ADME, organism-based; conditions: in vivo
Blood = assay: Biodistribution in corticosterone pretreated Wistar rat blood at 20 MBq, iv after 5 mins; assay type: ADME, organism-based; conditions: in vivo
Cerebellum [28] = assay: Biodistribution in Wistar rat cerebellum at 20 MBq, iv after 5 mins; assay type: ADME, organism-based; conditions: in vivo
Thymus [29] = assay: Biodistribution in Wistar rat thymus at 20 MBq, iv after 5 mins; assay type: ADME, organism-based; conditions: in vivo
Spleen [30] = assay: Biodistribution in corticosterone pretreated Wistar rat spleen at 20 MBq, iv after 5 mins; assay type: ADME, organism-based; conditions: in vivo
Heart [31] = assay: Biodistribution in corticosterone pretreated Wistar rat heart at 20 MBq, iv after 60 mins; assay type: ADME, organism-based; conditions: in vivo, 1 h
Kidney [32] = assay: Biodistribution in Wistar rat kidney at 20 MBq, iv after 60 mins; assay type: ADME, organism-based; conditions: in vivo, 1 h
Lung = assay: Biodistribution in corticosterone pretreated Wistar rat lung at 20 MBq, iv after 60 mins; assay type: ADME, organism-based; conditions: in vivo, 1 h
Pituitary gland [33] = assay: Biodistribution in Wistar rat pituitary at 20 MBq, iv after 60 mins; assay type: ADME, organism-based; conditions: in vivo, 1 h
Thymus [34] = assay: Biodistribution in Wistar rat thymus at 20 MBq, iv after 60 mins; assay type: ADME, organism-based; conditions: in vivo, 1 h
Rattus norvegicus [35] = assay: Biodistribution in Wistar rat testis at 20 MBq, iv after 60 mins; assay type: ADME, organism-based; conditions: in vivo, 1 h
Rattus norvegicus [36] = assay: Biodistribution in corticosterone pretreated Wistar rat testis at 20 MBq, iv after 60 mins; assay type: ADME, organism-based; conditions: in vivo, 1 h

With `C=CCC1Oc2cccc(O[11CH3])c2-c2ccc3c(c21)C(C)=CC(C)(C)N3` (stereo not given) the Drug uptake (Cortex [1]) was 1.67 % ID/g, the Drug uptake (Kidney [2]) was 2.06 % ID/g and the Drug uptake (Femur [3]) was 0.7 % ID/g. For the same molecule, the Drug uptake (Adrenal [4]) was 4.4 % ID/g, the Drug uptake (Spleen [5]) was 1.06 % ID/g and the Drug uptake (Hippocampus [6]) was 0.61 % ID/g. The Drug uptake (Rattus norvegicus [7]) was 0.61 % ID/g, the Drug uptake (Hippocampus [8]) was 0.68 % ID/g and the Drug uptake (Heart [9]) was 1.91 % ID/g. It also gave a Drug uptake (Femur [10]) of 0.9 % ID/g, a Drug uptake (Pancreas [11]) of 2.81 % ID/g and a Drug uptake (Rattus norvegicus [12]) of 7.44 % ID/g. For the same molecule, the Drug uptake (Cortex [13]) was 1.55 % ID/g, the Drug uptake (Pancreas [14]) was 1.43 % ID/g and the Drug uptake (Pancreas [15]) was 1.99 % ID/g. For the same molecule, the Drug uptake (Rattus norvegicus [16]) was 1.51 % ID/g, the Drug uptake (Harderian gland [17]) was 2.87 % ID/g and the Drug uptake (Kidney [18]) was 1.72 % ID/g. The Drug uptake (Rattus norvegicus [19]) was 2.43 % ID/g, the Drug uptake (Femur [20]) was 0.85 % ID/g and the Drug uptake (Cortex [21]) was 0.74 % ID/g. It also gave a Drug uptake (Liver) of 2.54 % ID/g, a Drug uptake (Muscle tissue) of 0.59 % ID/g and a Drug uptake (Cerebellum [22]) of 0.64 % ID/g. For the same molecule, the Drug uptake (Pancreas [23]) was 2.79 % ID/g, the Drug uptake (Rattus norvegicus [24]) was 3.11 % ID/g and the Drug uptake (Harderian gland [25]) was 1.65 % ID/g. The Drug uptake (Adrenal [26]) was 7.63 % ID/g, the Drug uptake (Pituitary gland [27]) was 2.49 % ID/g and the Drug uptake (Blood) was 0.52 % ID/g. The Drug uptake (Cerebellum [28]) was 1.39 % ID/g, the Drug uptake (Thymus [29]) was 1.57 % ID/g and the Drug uptake (Spleen [30]) was 1.21 % ID/g. The Drug uptake (Heart [31]) was 0.67 % ID/g, the Drug uptake (Kidney [32]) was 1.19 % ID/g and the Drug uptake (Lung) was 1.03 % ID/g. For the same molecule, the Drug uptake (Pituitary gland [33]) was 1.77 % ID/g, the Drug uptake (Thymus [34]) was 1.48 % ID/g and the Drug uptake (Rattus norvegicus [35]) was 0.52 % ID/g. It also gave a Drug uptake (Rattus norvegicus [36]) of 0.5 % ID/g.
